# Like-named read-outs stand apart in the source and are kept apart here.
# Key:
# [1] = system: Arg-gingipain (RGP); assay: Inhibitory activity against Arg-gingipain (RGP), substrate Z-Phe-Arg-MCA, for comparison; format: biochemical, Porphyromonas gingivalis; conditions: compound concentration 10^−6 mol/l
# Description: Enzyme inhibitory activity (%)=[1−(F/F0)]×100
# The inhibitory activity against Arg-gingipain (hereinafter referred to as “RGP”) was measured for comparison in a manner similar to the above, by the process described in Journal Biological Chemistry, Vol. 269, 21371-21378 (1994) using Z-Phe-Arg-MCA as a substrate.
# [2] = molecular target: Lys-gingipain (KGP) (Porphyromonas gingivalis, UniProt B2RLK2)
# Description: Measurement of Inhibitory Activity Against KGP
# The inhibitory activity against Lys-gingipain (KGP) was measured by the method described in Journal Biochemistry, Vol. 123, 305-312 (1998), using Z-His-Glu-Lys-MCA as a substrate. Specifically, the measurement was carried out in the following manner: 100 μl of 50 mM L-cystein, 200 μl of a 0.1 M sodium phosphate buffer solution (pH 7.5), 20 μl of 12.3 nM KGP solution containing 0.05% “Brij35” (a tradename of Aldrich, polyoxyethylene(23) lauryl ether), 80 μl of distilled water and 100 μl of a dimethyl sulfoxide solution of a compound according to the invention were mixed together, and preincubated at 37° C. for 5 minutes. Thereafter, 500 μl of a 0.1% dimethyl sulfoxide solution containing 20 μM Z-His-Glu-Lys-MCA was added, followed by incubation at 40° C. for 10 minutes. Then, an acetic acid buffer solution (pH 5.0) containing 10 mM iodoacetamide was added to stop the enzyme reaction, and the fluorescence intensity (F) at 460 nm excited at 380 nm was measured. […] The enzyme inhibitory activity (%) was calculated by the following equation. Enzyme inhibitory activity (%)=[1−(F/F0)]×100
# [3] = compound concentration 10^−6 mol/l
# [4] = compound concentration 10^−9 mol/l
Structure (SMILES),melting point,Enzyme inhibitory activity (%) RGP [1],"Enzyme inhibitory activity (%) KGP [2, 3]","Enzyme inhibitory activity (%) KGP [2, 4]"
CC(C)C[C@H](NC(=O)C(=O)[C@H](CCCCNC(=O)OC(C)(C)C)NC(=O)[C@H](CCC(=O)OC(C)(C)C)NC(=O)OCc1ccccc1)C(=O)N(C)C,119 to 122 °C,–,–,–
CN(C)NC(=O)CC[C@H](NC(=O)OCc1ccccc1)C(=O)N[C@@H](CCCCN)C(=O)C(=O)NCc1ccccc1.Cl.Cl [Example 48],–,4.1%,100.0%,98.2%
CC(C)C[C@H](NC(=O)C(=O)[C@H](CCCCN)NC(=O)[C@H](CCC(=O)O)NC(=O)OCc1ccccc1)C(=O)N(C)C.Cl [Example 35],–,3.7%,99.9%,50.6%
CN(C)C(=O)[C@H](CCCCNC(=O)OC(C)(C)C)NC(=O)C(=O)[C@H](CCCCNC(=O)OC(C)(C)C)NC(=O)[C@H](CCC(=O)OC(C)(C)C)NC(=O)OCc1ccccc1,152 to 155 °C,–,–,–
Cl.NCCCC[C@H](NC(=O)[C@H](CCC(=O)O)NC(=O)OCc1ccccc1)C(=O)C(=O)NCc1ccccc1 [Example 41],–,4.0%,99.7%,81.8%
CN(C)C(=O)[C@H](CC(N)=O)NC(=O)C(=O)[C@H](CCCCN)NC(=O)[C@H](CCC(=O)O)NC(=O)OCc1ccccc1.Cl [Example 37],–,8.5%,99.9%,59.6%
Cl.NCCCC[C@H](NC(=O)[C@H](CCC(N)=O)NC(=O)OCc1ccccc1)C(=O)C(=O)NCc1ccccc1 [Example 43],–,9.0%,100.0%,93.8%
Cl.Cl.NCCCC[C@H](NC(=O)[C@H](CCC(=O)N1CCNCC1)NC(=O)OCc1ccccc1)C(=O)C(=O)NCc1ccccc1 [Example 47],–,6.4%,100.0%,98.5%
Cl.Cl.NCCCC[C@H](NC(=O)[C@H](CCC(=O)NCCN)NC(=O)OCc1ccccc1)C(=O)C(=O)NCc1ccccc1 [Example 46],–,0.5%,99.9%,99.9%
CCCNC(=O)C(=O)[C@H](CCCCN)NC(=O)[C@H](CCC(=O)O)NC(=O)OCc1ccccc1.Cl [Example 39],–,0.0%,99.6%,71.9%
CC(C)(C)OC(=O)CC[C@H](NC(=O)OCc1ccccc1)C(=O)N[C@@H](CCCCNC(=O)OC(C)(C)C)C(O)C(=O)O (stereo partly drawn),48 to 50 °C,–,–,–
CN(C)C(=O)[C@H](Cc1ccccc1)NC(=O)C(=O)[C@H](CCCCN)NC(=O)[C@H](CCC(=O)O)NC(=O)OCc1ccccc1.Cl [Example 34],–,5.7%,99.7%,40.6%
Cl.NCCCC[C@H](NC(=O)[C@H](CCC(=O)O)NC(=O)OCc1ccccc1)C(=O)C(=O)Nc1ccccc1 [Example 40],–,0.0%,99.6%,71.3%
Cl.NCCCC[C@H](NC(=O)[C@H](CCC(=O)O)NC(=O)OCc1ccccc1)C(=O)C(=O)NCCc1ccccc1 [Example 42],–,7.7%,98.0%,67.0%
CCCNC(=O)C(O)[C@H](CCCCNC(=O)OC(C)(C)C)NC(=O)[C@H](CCC(=O)OC(C)(C)C)NC(=O)OCc1ccccc1 (stereo partly drawn),73 to 75 °C,–,–,–
CNC(=O)CC[C@H](NC(=O)OCc1ccccc1)C(=O)N[C@@H](CCCCN)C(=O)C(=O)NCc1ccccc1.Cl [Example 44],–,1.9%,100.0%,97.3%
CN(C)C(=O)[C@H](CC(N)=O)NC(=O)C(O)[C@H](CCCCNC(=O)OC(C)(C)C)NC(=O)[C@H](CCC(=O)OC(C)(C)C)NC(=O)OCc1ccccc1 (stereo partly drawn),88 to 91 °C,–,–,–
CN(C)C(=O)CC[C@H](NC(=O)OCc1ccccc1)C(=O)N[C@@H](CCCCN)C(=O)C(=O)NCc1ccccc1.Cl [Example 45],–,0.0%,100.0%,93.7%
CN(C)C(=O)[C@H](CC(N)=O)NC(=O)C(=O)[C@H](CCCCNC(=O)OC(C)(C)C)NC(=O)[C@H](CCC(=O)OC(C)(C)C)NC(=O)OCc1ccccc1,122 to 124 °C,–,–,–
CN(NC(=O)CC[C@H](NC(=O)OCc1ccccc1)C(=O)N[C@@H](CCCCN)C(=O)C(=O)NCc1ccccc1)c1ccccc1.Cl.Cl [Example 49],–,0.0%,100.0%,99.0%
"CC(C)(C)OC(=O)CC[C@H](NC(=O)OCc1ccccc1)C(=O)N[C@@H](CCCCNC(=O)OC(C)(C)C)C(O)C(=O)Nc1ccccc1 (single isomer, unassigned)",146 to 147 °C,–,–,–
COC(=O)C(O)[C@H](CCCCNC(=O)OC(C)(C)C)NC(=O)[C@H](CCC(=O)OC(C)(C)C)NC(=O)OCc1ccccc1 (stereo partly drawn),101 to 103 °C,–,–,–
CN(C)C(=O)[C@H](CCC(=O)O)NC(=O)C(=O)[C@H](CCCCN)NC(=O)[C@H](CCC(=O)O)NC(=O)OCc1ccccc1.Cl [Example 36],–,0.0%,98.6%,38.4%
CN(C)C(=O)[C@H](CCC(=O)OC(C)(C)C)NC(=O)C(=O)[C@H](CCCCNC(=O)OC(C)(C)C)NC(=O)[C@H](CCC(=O)OC(C)(C)C)NC(=O)OCc1ccccc1,127 to 130 °C,–,–,–

# Continued, in another order:
melting point,Structure (SMILES),Enzyme inhibitory activity (%) RGP [1],"Enzyme inhibitory activity (%) KGP [2, 3]","Enzyme inhibitory activity (%) KGP [2, 4]"
157 to 159 °C,CC(C)(C)OC(=O)NCCCC[C@H](NC(=O)[C@H](CCC(=O)NCCNC(=O)OC(C)(C)C)NC(=O)OCc1ccccc1)C(=O)C(=O)NCc1ccccc1,–,–,–
131 to 133 °C,CCCNC(=O)C(=O)[C@H](CCCCNC(=O)OC(C)(C)C)NC(=O)[C@H](CCC(=O)OC(C)(C)C)NC(=O)OCc1ccccc1,–,–,–
170 to 173 °C,CN(NC(=O)CC[C@H](NC(=O)OCc1ccccc1)C(=O)N[C@@H](CCCCNC(=O)OC(C)(C)C)C(O)C(=O)NCc1ccccc1)c1ccccc1 (stereo partly drawn),–,–,–
189 to 192 °C,CNC(=O)CC[C@H](NC(=O)OCc1ccccc1)C(=O)N[C@@H](CCCCNC(=O)OC(C)(C)C)C(=O)C(=O)NCc1ccccc1,–,–,–
132 to 134 °C,"CN(C)C(=O)[C@H](Cc1ccccc1)NC(=O)C(O)[C@H](CCCCNC(=O)OC(C)(C)C)NC(=O)[C@H](CCC(=O)OC(C)(C)C)NC(=O)OCc1ccccc1 (single isomer, unassigned)",–,–,–
130 to 132 °C,CC(C)(C)OC(=O)CC[C@H](NC(=O)OCc1ccccc1)C(=O)N[C@@H](CCCCNC(=O)OC(C)(C)C)C(=O)C(=O)NCc1ccccc1,–,–,–
82 to 85 °C,CC(C)(C)OC(=O)CC[C@H](NC(=O)OCc1ccccc1)C(=O)N[C@@H](CCCCNC(=O)OC(C)(C)C)C(O)C(=O)NCCc1ccccc1 (stereo partly drawn),–,–,–
147 to 150 °C,CN(NC(=O)CC[C@H](NC(=O)OCc1ccccc1)C(=O)N[C@@H](CCCCNC(=O)OC(C)(C)C)C(=O)C(=O)NCc1ccccc1)c1ccccc1,–,–,–
170 to 172 °C,CC(C)(C)OC(=O)NCCCC[C@H](NC(=O)[C@H](CCC(=O)NCCNC(=O)OC(C)(C)C)NC(=O)OCc1ccccc1)C(O)C(=O)NCc1ccccc1 (stereo partly drawn),–,–,–
193 to 195 °C,CC(C)(C)OC(=O)NCCCC[C@H](NC(=O)[C@H](CCC(N)=O)NC(=O)OCc1ccccc1)C(=O)C(=O)NCc1ccccc1,–,–,–
138 to 141 °C,CC(C)(C)OC(=O)NCCCC[C@H](NC(=O)[C@H](CCC(N)=O)NC(=O)OCc1ccccc1)C(O)C(=O)NCc1ccccc1 (stereo partly drawn),–,–,–
148 to 150 °C,CC(C)(C)OC(=O)CC[C@H](NC(=O)OCc1ccccc1)C(=O)N[C@@H](CCCCNC(=O)OC(C)(C)C)C(=O)C(=O)NCCc1ccccc1,–,–,–
147 to 149 °C,CNC(=O)CC[C@H](NC(=O)OCc1ccccc1)C(=O)N[C@@H](CCCCNC(=O)OC(C)(C)C)C(O)C(=O)NCc1ccccc1 (stereo partly drawn),–,–,–
123 to 125 °C,CN(C)NC(=O)CC[C@H](NC(=O)OCc1ccccc1)C(=O)N[C@@H](CCCCNC(=O)OC(C)(C)C)C(O)C(=O)NCc1ccccc1 (stereo partly drawn),–,–,–
102 to 104 °C,CN(C)C(=O)[C@H](Cc1ccccc1)NC(=O)C(=O)[C@H](CCCCNC(=O)OC(C)(C)C)NC(=O)[C@H](CCC(=O)OC(C)(C)C)NC(=O)OCc1ccccc1,–,–,–

# Source: patent US6951843B2, “Peptide derivatives and their pharmaceutically acceptable salts, thereof, processes for preparation of both and use thereof” (priority 2000, dated 2005)
